Results from patent US7157107B2, “Method for producing eggs with low cholesterol level” (priority 2004, dated 2007).
Read-outs that look alike come from different tables or passages of the source.

Assays:
hens = conditions: cited from earlier work
Hy-line laying hens = assay: Monacolin K residue remained in eggs (HPLC); format: in vivo, hen; conditions: hens fed basal diet containing 0.056% monacolin K (highest red mold rice content) for 42 days, FIG. 3
Procedure: The method for determining whether there is any monacolin K residue remained comprised the following steps. 20 mL acetonitrile-water (9:1, v/v) is added into 10 grams of egg samples (including yolk samples and albumen samples which are separated from eggs laid by hens fed with red mold rice of the highest content for 42 days), vibrated for 60 min through ultrasonic vibration, stirred and mixed for 15 min. Then, after the solid is separated off through a Whatman No. 1 filter paper, equal volume of acetonitrile is added into a 4 mL egg sample, filtered via a filter membrane of 0.45 μm pore size, and analyzed thgrough HPLC. The operating conditions for performing HPLC analysis were described as above.

Structure (SMILES): CC[C@H](C)C(=O)O[C@H]1C[C@@H](C)C=C2C=C[C@H](C)[C@H](CC[C@@H]3C[C@@H](O)CC(=O)O3)[C@H]21 [lovastatin]
- Lowering of egg cholesterol concentration (hens; 0.0005% lovastatin, hens of 30 weeks old, feed for 12 weeks (Mori et al.)): 7.5%
- Lowering of egg cholesterol concentration (hens; 0.0015% lovastatin, hens of 30 weeks old, feed for 12 weeks (Mori et al.)): 12.7%
- Decrease in egg cholesterol concentration (hens; 0.0035% lovastatin, hens of 69 weeks old, feed for 5 weeks (Luhman et al.)): no significant decrease
- Lowering of egg cholesterol concentration (hens; 0.03% lovastatin, hens of 18 weeks old, feed for 5 weeks (Elkin and Yan)): 4%
- Lowering of egg cholesterol concentration (hens; 0.06% lovastatin, hens of 18 weeks old, feed for 5 weeks (Elkin and Yan)): 7%
- Decrease of egg cholesterol (hens; 0.2407% lovastatin in feed for 9 days (Elkin and Rogler)): 13%
- Monacolin K residue in eggs (yolk and egg white) (Hy-line laying hens): no monacolin K residue
